The experiment has as its target T1, USP1/UAF1 (Homo sapiens, UniProt O94782).
T1 construct: purchased R&D Systems
Briefly: Deubiquitination assay for USP1/UAF1 (ubiquitin-rhodamine 110 substrate). The format is biochemical. The note with it: 0.5 nM USP1/UAF1, 150 nM ubiquitin-rhodamine, 50% inhibition compared to DMSO control. Here is the method:
Deubiquitination assay for USP1/UAF1: compounds described here were tested for their ability to inhibit USP1 deubiquitinase activity in this assay using ubiquitin-rhodamine 110 as the substrate. The assay was conducted in the assay buffer (50 mM Tris-HCl, pH 7.8, 0.5 mM EDTA, 0.1 mg/ml Bovine Serum Albumin, 1 mM DTT, 0.01% Tween-20) in 384 well plates. 0.5 nM USP1/UAF1 (R&D Systems) was incubated with compounds in dose response format for 10 minutes at room temperature. Then the reaction was initiated by addition of 150 nM ubiquitin-rhodamine (R&D Systems). The fluorescence intensity was read after 45 minutes at Ex488/Em535 by CLARIOstar (BMG Labtech). IC50 response curves were plotted.

T1 sequence (O94782 whole entry): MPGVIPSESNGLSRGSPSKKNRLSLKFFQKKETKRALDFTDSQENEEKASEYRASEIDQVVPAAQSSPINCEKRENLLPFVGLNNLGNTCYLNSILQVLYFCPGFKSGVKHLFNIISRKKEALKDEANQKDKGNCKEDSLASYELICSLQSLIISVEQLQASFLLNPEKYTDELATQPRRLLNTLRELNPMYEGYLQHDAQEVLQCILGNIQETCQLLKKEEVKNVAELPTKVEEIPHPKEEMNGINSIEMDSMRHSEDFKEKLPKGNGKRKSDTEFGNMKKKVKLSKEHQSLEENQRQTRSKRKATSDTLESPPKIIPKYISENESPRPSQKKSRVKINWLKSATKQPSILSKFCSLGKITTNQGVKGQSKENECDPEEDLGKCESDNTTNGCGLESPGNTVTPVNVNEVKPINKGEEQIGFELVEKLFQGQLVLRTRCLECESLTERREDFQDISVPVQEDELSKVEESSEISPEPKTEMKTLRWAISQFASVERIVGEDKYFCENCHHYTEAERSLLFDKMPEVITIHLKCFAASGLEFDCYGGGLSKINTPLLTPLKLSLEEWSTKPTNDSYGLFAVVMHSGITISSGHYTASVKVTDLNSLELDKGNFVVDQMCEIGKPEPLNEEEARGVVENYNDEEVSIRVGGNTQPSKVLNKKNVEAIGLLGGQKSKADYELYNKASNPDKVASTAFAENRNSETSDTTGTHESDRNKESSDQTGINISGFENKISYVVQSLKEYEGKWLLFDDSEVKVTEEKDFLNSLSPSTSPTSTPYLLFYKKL
T1 sequence (Q8TAF3 whole entry partner): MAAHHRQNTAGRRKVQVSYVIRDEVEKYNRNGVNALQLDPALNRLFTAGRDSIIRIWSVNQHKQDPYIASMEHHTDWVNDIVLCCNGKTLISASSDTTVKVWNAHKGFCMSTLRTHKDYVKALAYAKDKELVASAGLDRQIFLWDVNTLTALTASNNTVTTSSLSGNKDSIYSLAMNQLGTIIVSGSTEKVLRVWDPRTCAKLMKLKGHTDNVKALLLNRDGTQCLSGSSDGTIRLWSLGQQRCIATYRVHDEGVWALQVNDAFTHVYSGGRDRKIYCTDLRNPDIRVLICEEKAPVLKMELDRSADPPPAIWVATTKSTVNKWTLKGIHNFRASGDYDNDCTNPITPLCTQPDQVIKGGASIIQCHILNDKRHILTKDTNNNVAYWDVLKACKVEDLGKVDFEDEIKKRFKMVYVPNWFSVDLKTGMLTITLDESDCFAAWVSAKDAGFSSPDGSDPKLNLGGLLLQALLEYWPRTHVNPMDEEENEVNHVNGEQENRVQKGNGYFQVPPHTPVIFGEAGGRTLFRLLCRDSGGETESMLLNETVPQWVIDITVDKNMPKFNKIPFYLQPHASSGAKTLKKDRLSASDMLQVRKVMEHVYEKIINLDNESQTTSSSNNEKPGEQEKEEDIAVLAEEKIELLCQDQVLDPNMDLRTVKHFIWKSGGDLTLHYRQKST

“1^6-cyclopropyl-4^4-(1-isopropyl-4-(trifluoromethyl)-1H-imidazol-2-yl)-2^1-methyl-2^1H-5,8-dioxa-2(5,3)-pyrazolo[4,3-d]pyrimidina-1(5,4)-pyrimidina-4(1,2)-benzenacyclooctaphane [Example 22]” had an IC50 not above 100 nM.

For “1^6-cyclopropyl-4^4-(1-isopropyl-4-(trifluoromethyl)-1H-imidazol-2-yl)-2^1H-9-oxa-5-aza-2(6,1)-pyrazolo[3,4-d]pyrimidina-1(5,4)-pyrimidina-4(1,2)-benzenacyclononaphan-6-one [Example 15]”, the IC50 was not below 1000 nM.

For “1^6-cyclopropyl-4^4-(1-isopropyl-4-(trifluoromethyl)-1H-imidazol-2-yl)-2^1H-9-oxa-5-aza-2(6,1)-pyrazolo[3,4-d]pyrimidina-1(5,4)-pyrimidina-4(1,3)-benzenacyclonona-phane [Example 50]”, the IC50 was not above 100 nM.

In turn, `Cc1cnc2nc1NCc1ccc(-c3nc(C(F)(F)F)cn3C(C)C)cc1OCCOc1ncnc(C3CC3)c1-2` [Example 1, 1^6-cyclopropyl-5^4-(1-isopropyl-4-(trifluoromethyl)-1H-imidazol-2-yl)-2^5-methyl-6,9-dioxa-3-aza-1(5,4),2(2,4)-dipyrimidina-5(1,2)-benzenacyclononaphane] gave an IC50 not above 100 nM.

Take `CC(C)n1cc(C(F)(F)F)nc1-c1ccc2c(c1)OCCOc1ncnc(C3CC3)c1-c1ncc3cnn(c3n1)C2` [Example 2, 1^6-cyclopropyl-4^4-(1-isopropyl-4-(trifluoromethyl)-1H-imidazol-2-yl)-2^1H-5,8-dioxa-2(6,1)-pyrazolo[3,4-d]pyrimidina-1(5,4)-pyrimidina-4(1,2)-benzenacyclooctaphane]: the IC50 is not above 100 nM.

As for `CC(C)n1cc(C(F)(F)F)nc1-c1ccc2c(c1)OCCCCOc1ncnc(C3CC3)c1-c1ncc3cnn(c3n1)C2` [Example 3, 1^6-cyclopropyl-4^4-(1-isopropyl-4-(trifluoromethyl)-1H-imidazol-2-yl)-2^1H-5,10-dioxa-2(6,1)-pyrazolo[3,4-d]pyrimidina-1(5,4)-pyrimidina-4(1,2)-benzenacyclodecaphane], the IC50 was not below 1000 nM.

For the compound `CC(C)n1cc(C(F)(F)F)nc1-c1ccc2c(c1)CCOc1ncnc(C3CC3)c1-c1ncc3cnn(c3n1)C2` [Example 4, 1^6-cyclopropyl-4^4-(1-isopropyl-4-(trifluoromethyl)-1H-imidazol-2-yl)-2^1H-7-oxa-2(6,1)-pyrazolo[3,4-d]pyrimidina-1(5,4)-pyrimidina-4(1,2)-benzenacycloheptaphane], the IC50 was not below 1000 nM.

As for `CC(C)n1cc(C(F)(F)F)nc1-c1ccc2c(c1)OCCCOc1ncnc(C3CC3)c1-c1ncc3cnn(c3n1)C2` [Example 5, 1^6-cyclopropyl-4^4-(1-isopropyl-4-(trifluoromethyl)-1H-imidazol-2-yl)-2^1H-5,9-dioxa-2(6,1)-pyrazolo[3,4-d]pyrimidina-1(5,4)-pyrimidina-4(1,2)-benzenacyclononaphane], the IC50 is not above 100 nM.

Turning to `CC(C)c1cccc2c1-c1ncc3cnn(c3n1)Cc1ccc(-c3nc(C(F)(F)F)cn3C(C)C)cc1OCCO2` [Example 7, 1^6-isopropyl-4^4-(1-isopropyl-4-(trifluoromethyl)-1H-imidazol-2-yl)-2^1H-5,8-dioxa-2(6,1)-pyrazolo[3,4-d]pyrimidina-1,4(1,2)-dibenzenacyclooctaphane], the IC50 was not above 100 nM.

In turn, `CC(C)n1cc(C(F)(F)F)nc1-c1ccc2c(c1)NCCCOc1ncnc(C3CC3)c1-c1ncc3cnn(c3n1)C2` [Example 8, 1^6-cyclopropyl-4^4-(1-isopropyl-4-(trifluoromethyl)-1H-imidazol-2-yl)-2^1H-9-oxa-5-aza-2(6,1)-pyrazolo[3,4-d]pyrimidina-1(5,4)-pyrimidina-4(1,2)-benzenacyclononaphane] displayed an IC50 not above 100 nM.

`CC(C)n1cc(C(F)(F)F)nc1-c1ccc2c(c1)CCCOc1ncnc(C3CC3)c1-c1ncc3cnn(c3n1)C2` [Example 9, 1^6-cyclopropyl-4^4-(1-isopropyl-4-(trifluoromethyl)-1H-imidazol-2-yl)-2^1H-8-oxa-2(6,1)-pyrazolo[3,4-d]pyrimidina-1(5,4)-pyrimidina-4(1,2)-benzenacyclooctaphane] showed an IC50 not above 100 nM.

Consider `CC(C)n1cc(C(F)(F)F)nc1-c1ccc2c(c1)OCCCNc1c(ncnc1C1CC1)-c1ncc3cnn(c3n1)C2` [Example 10, 1^6-cyclopropyl-4^4-(1-isopropyl-4-(trifluoromethyl)-1H-imidazol-2-yl)-2^1H-5-oxa-9-aza-2(6,1)-pyrazolo[3,4-d]pyrimidina-1(5,4)-pyrimidina-4(1,2)-benzenacyclononaphane], for which the IC50 was not above 100 nM.

For the compound `CC(C)n1cc(C(F)(F)F)nc1-c1ccc2c(c1)OCCNc1ncnc(C3CC3)c1-c1ncc3cnn(c3n1)C2` [Example 11, 1^6-cyclopropyl-4^4-(1-isopropyl-4-(trifluoromethyl)-1H-imidazol-2-yl)-2^1H-5-oxa-8-aza-2(6,1)-pyrazolo[3,4-d]pyrimidina-1(5,4)-pyrimidina-4(1,2)-benzenacyclooctaphane], the IC50 is not above 100 nM.

`CC(C)n1cc(C(F)(F)F)nc1-c1ccc2c(c1)OCC1(CC1)COc1ncnc(C3CC3)c1-c1ncc3cnn(c3n1)C2` [Example 12, 6′-cyclopropyl-4′-(1-isopropyl-4-(trifluoromethyl)-1H-imidazol-2-yl)spiro[cyclopropane-1,7′-5,9-dioxa-2(6,1)-pyrazolo[3,4-d]pyrimidina-1(5,4)-pyrimidina-4(1,2)-benzenacyclononaphane]]: the IC50 is 100 to 1000 nM.

As to `FC(F)(F)c1cn(C2CC2)c(-c2ccc3c(c2)OCCOc2ncnc(C4CC4)c2-c2ncc4cnn(c4n2)C3)n1` [Example 13, 1^6-cyclopropyl-4^4-(1-cyclopropyl-4-(trifluoromethyl)-1H-imidazol-2-yl)-2^1H-5,8-dioxa-2(6,1)-pyrazolo[3,4-d]pyrimidina-1(5,4)-pyrimidina-4(1,2)-benzenacyclooctaphane], the IC50 is not above 100 nM.

Compound `CC(C)n1cc(C(F)(F)F)nc1-c1ccc2c(c1)NCCOc1ncnc(C3CC3)c1-c1ncc3cnn(c3n1)C2` [Example 14, 1^6-cyclopropyl-4^4-(1-isopropyl-4-(trifluoromethyl)-1H-imidazol-2-yl)-2^1H-8-oxa-5-aza-2(6,1)-pyrazolo[3,4-d]pyrimidina-1(5,4)-pyrimidina-4(1,2)-benzenacyclooctaphane] registered an IC50 not above 100 nM.

For the compound `CC(C)n1cc(C(F)(F)F)nc1-c1ccc2c(c1)OCCOc1ncnc(C3CC3)c1-c1ncc3ccc(=O)n(c3n1)C2` [Example 16, 1^6-cyclopropyl-4^4-(1-isopropyl-4-(trifluoromethyl)-1H-imidazol-2-yl)-2^7,2^8-dihydro-5,8-dioxa-2(2,8)-pyrido[2,3-d]pyrimidina-1(5,4)-pyrimidina-4(1,2)-benzenacyclooctaphan-2^7-one], the IC50 was not above 100 nM.

`CC(C)n1cc(C(F)(F)F)nc1-c1ccc2c(c1)OCCCOc1ncnc(C3CC3)c1-c1ncc3ccc(=O)n(c3n1)C2` [Example 17, 1^6-cyclopropyl-4^4-(1-isopropyl-4-(trifluoromethyl)-1H-imidazol-2-yl)-2^7,2^8-dihydro-5,9-dioxa-2(2,8)-pyrido[2,3-d]pyrimidina-1(5,4)-pyrimidina-4(1,2)-benzenacyclononaphan-2^7-one]: the IC50 is not above 100 nM.

In the case of `O=c1ccc2cnc3nc2n1Cc1ccc(-c2nc(C(F)(F)F)cn2C2CC2)cc1CCOc1c-3ncnc1C1CC1` [Example 18, 1^6-cyclopropyl-4^4-(1-cyclopropyl-4-(trifluoromethyl)-1H-imidazol-2-yl)-2^7,2^8-dihydro-7-oxa-2(2,8)-pyrido[2,3-d]pyrimidina-1(5,4)-pyrimidina-4(1,2)-benzenacycloheptaphan-2^7-one], the IC50 was not below 1000 nM.

Compound `CC(C)n1cc(C(F)(F)F)nc1-c1ccc2c(c1)OCCCNc1ncnc(C3CC3)c1-c1ncc3ccc(=O)n(c3n1)C2` [Example 19, 1^6-cyclopropyl-4^4-(1-isopropyl-4-(trifluoromethyl)-1H-imidazol-2-yl)-2^7,2^8-dihydro-5-oxa-9-aza-2(2,8)-pyrido[2,3-d]pyrimidina-1(5,4)-pyrimidina-4(1,2)-benzenacyclononaphan-2^7-one] registered an IC50 of 100 to 1000 nM.

In the case of `CC(C)n1cc(C(F)(F)F)nc1-c1ccc2c(c1)NCCCOc1ncnc(C3CC3)c1-c1ncc3ccc(=O)n(c3n1)C2` [Example 20, 1^6-cyclopropyl-4^4-(1-isopropyl-4-(trifluoromethyl)-1H-imidazol-2-yl)-2^7,2^8-dihydro-9-oxa-5-aza-2(2,8)-pyrido[2,3-d]pyrimidina-1(5,4)-pyrimidina-4(1,2)-benzenacyclononaphan-2^7-one], the half-inhibitory concentration (IC50) was not above 100 nM.

`FC(F)(F)c1cn(C2CC2)c(-c2ccc3c(c2)OCCOc2ncnc(C4CC4)c2-c2ncc4ccc(n4n2)C3)n1` [Example 21, (Z)-1^6-cyclopropyl-4^4-(1-cyclopropyl-4-(trifluoromethyl)-1H-imidazol-2-yl)-5,8-dioxa-2(2,7)-pyrrolo[2,1-f][1,2,4]triazina-1(5,4)-pyrimidina-4(1,2)-benzenacyclooctaphane]: the IC50 is not above 100 nM.

Regarding `CC(C)n1cc(C(F)(F)F)nc1-c1ccc2c(c1)N(C)CCCOc1ncnc(C3CC3)c1-c1ncc3cnn(c3n1)C2` [Example 23, 1^6-cyclopropyl-4^4-(1-isopropyl-4-(trifluoromethyl)-1H-imidazol-2-yl)-5-methyl-2^1H-9-oxa-5-aza-2(6,1)-pyrazolo[3,4-d]pyrimidina-1(5,4)-pyrimidina-4(1,2)-benzenacyclononaphane], the IC50 is not below 1000 nM.

Broadly, the IC50 is the concentration at which inhibition is half-maximal. A low value points to inhibition by little substance.

The values are drawn from patent US20260285876A1, “MACROCYCLIC COMPOUNDS AS USP1 INHIBITORS” (GUANGDONG NEWOPP BIOPHARMACEUTICALS CO., LTD., priority 2023, published 2026).
